In patent US20240317718A1, “SUBSTITUTED HETEROCYCLIC COMPOUNDS” (BRISTOL-MYERS SQUIBB COMPANY, priority 2021, published 2024):

Legend:
in vitro = conditions: human, Caco-2, pH 7.4
[1] = system: IFNα-induced pSTAT5 (Tyk2-mediated signal transduction); test: IFNα-induced STAT phosphorylation in human whole blood; format: cell-based; conditions: 1 h incubation with compound, 1000 U/mL IFNα A/D for 15 min, CD3 positive population, read-out: Human Whole blood IFNa pSTAT5 IC50
Experimental: IFNα-Induced STAT Phosphorylation in Human Whole Blood
After an hour long incubation with compound, human whole blood (drawn with ACD-A as anticoagulant) was stimulated with 1000 U/mL recombinant human IFNα A/D (R&D Systems 11200-2) for 15 min. The stimulation was stopped by adding Fix/Lyse buffer (BD 558049). Cells were stained with a CD3 FITC antibody (BD 555916), washed, and permeabilized on ice using Perm III buffer (BD 558050). Cells were then stained with an Alexa-Fluor 647 pSTAT5 (pY694) antibody (BD 612599) for 60 min prior to analysis on the iQue Plus. The amount of pSTAT5 expression was quantitated by median fluorescence intensity after gating on the CD3 positive population.

SMILES	Papp A→B at 2 h, 3 μM (in vitro) [×10⁻⁶ cm/s]	efflux ratio at 2 h, 3 μM (in vitro)	IC50 [1] [nM]
[2H]C([2H])([2H])NC(=O)c1nnc(NC(=O)C2CC2)cc1Nc1cccc(-c2noc(COC(C)C)n2)c1OC [Example 2, 6-(cyclopropanecarboxamido)-4-((3-(5-(isopropoxymethyl)-1,2,4-oxadiazol-3-yl)-2-methoxyphenyl)amino)-N-(methyl-d3)pyridazine-3-carboxamide]	66.1	0.3	13
[2H]C([2H])([2H])NC(=O)c1nnc(NC(=O)C2CC2)cc1Nc1cccc(-c2noc(C(F)F)n2)c1OC [Example 19, 6-(cyclopropanecarboxamido)-4-((3-(5-(difluoromethyl)-1,2,4-oxadiazol-3-yl)-2-methoxyphenyl)amino)-N-(methyl-d3)pyridazine-3-carboxamide]	17	0.6	69
CCOCc1nc(-c2cccc(Nc3cc(NC(=O)C4CC4)nnc3C(=O)NC)c2OC)no1 [Example 3, 6-cyclopropaneamido-4-({3-[5-(ethoxymethyl)-1,2,4-oxadiazol-3-yl]-2-methoxyphenyl}amino)-N-(^2H3)methylpyridazine-3-carboxamide]	–	–	31
[2H]C([2H])([2H])NC(=O)c1nnc(NC(=O)C2CC2)cc1Nc1cccc(-c2noc(CF)n2)c1OC [Example 1, 6-(cyclopropanecarboxamido)-4-((3-(5-(fluoromethyl)-1,2,4-oxadiazol-3-yl)-2-methoxyphenyl)amino)-N-(methyl-d3)pyridazine-3-carboxamide]	65	0.5	34
[2H]C([2H])([2H])NC(=O)c1nnc(NC(=O)C2CC2)cc1Nc1cccc(-c2cocn2)c1OC [Example 6, 6-(cyclopropanecarboxamido)-4-((2-methoxy-3-(oxazol-4-yl)phenyl)amino)-N-(methyl-d3)pyridazine-3-carboxamide]	78.5	0.5	42
[2H]C([2H])([2H])NC(=O)c1nnc(NC(=O)C2CC2)cc1Nc1cccc(-c2cnc(OC)cn2)c1OC [Example 22, 6-cyclopropaneamido-4-{[2-methoxy-3-(5-methoxypyrazin-2-yl)phenyl]amino}-N-(^2H3)methylpyridazine-3-carboxamide]	32.3	0.6	410
[2H]C([2H])([2H])NC(=O)c1nnc(NC(=O)C2CC2)cc1Nc1cccc(-c2ccc(C(F)F)cn2)c1OC [Example 7, 6-(cyclopropanecarboxamido)-4-((3-(5-(difluoromethyl)pyridin-2-yl)-2-methoxyphenyl)amino)-N-(methyl-d3)pyridazine-3-carboxamide]	31.3	0.6	431
[2H]C([2H])([2H])NC(=O)c1nnc(NC(=O)C2CC2)cc1Nc1cccc(-c2cnc(C)cn2)c1OC [Example 23, 6-cyclopropaneamido-4-{[2-methoxy-3-(5-methylpyrazin-2-yl)phenyl]amino}-N-(^2H3)methylpyridazine-3-carboxamide]	17.4	1.4	243
[2H]C([2H])([2H])NC(=O)c1nnc(NC(=O)C2CC2)cc1Nc1cc(F)cc(-c2cnn(C)c2)c1OC [Example 27, 6-cyclopropaneamido-4-{[5-fluoro-2-methoxy-3-(1-methyl-1H-pyrazol-4-yl)phenyl]amino}-N-(^2H3)methylpyridazine-3-carboxamide]	31.2	0.9	177
[2H]C([2H])([2H])NC(=O)c1nnc(NC(=O)C2CC2)cc1Nc1cccc(-c2cnc(C#N)cn2)c1OC [Example 29, 4-{[3-(5-cyanopyrazin-2-yl)-2-methoxyphenyl]amino}-6-cyclopropaneamido-N-(^2H3)methylpyridazine-3-carboxamide]	31.7	0.5	417
[2H]C([2H])([2H])NC(=O)c1nnc(NC(=O)C2CC2)cc1Nc1nccc(-c2cnn(C(F)F)c2)c1OC [Example 42, 6-cyclopropaneamido-4-({4-[1-(difluoromethyl)-1H-pyrazol-4-yl]-3-methoxypyridin-2-yl}amino)-N-(^2H3)methylpyridazine-3-carboxamide]	26.6	0.4	193
[2H]C([2H])([2H])NC(=O)c1nnc(NC(=O)C2CC2)cc1Nc1nccc(-c2nccs2)c1OC [Example 33, 6-cyclopropaneamido-4-{[3-methoxy-4-(1,3-thiazol-2-yl)pyridin-2-yl]amino}-N-(^2H3)methylpyridazine-3-carboxamide]	38.3	0.4	207
[2H]C([2H])([2H])NC(=O)c1nnc(NC(=O)C2CC2)cc1Nc1cccc(-c2noc(CC)n2)c1OC [Example 43, 6-cyclopropaneamido-4-{[3-(5-ethyl-1,2,4-oxadiazol-3-yl)-2-methoxyphenyl]amino}-N-(^2H3)methylpyridazine-3-carboxamide]	24.2	0.8	443
CNC(=O)c1nnc(NC(=O)C2CC2)cc1Nc1cccc(-c2noc(CCOC)n2)c1OC [Example 4, 6-cyclopropaneamido-4-({2-methoxy-3-[5-(2-methoxyethyl)-1,2,4-oxadiazol-3-yl]phenyl}amino)-N-(^2H3)methylpyridazine-3-carboxamide]	–	–	9
CNC(=O)c1nnc(NC(=O)C2CC2)cc1Nc1cccc(-c2cc(C)ncn2)c1OC [Example 8, 6-cyclopropaneamido-4-{[2-methoxy-3-(6-methylpyrimidin-4-yl)phenyl]amino}-N-(^2H3)methylpyridazine-3-carboxamide]	–	–	248
CNC(=O)c1nnc(NC(=O)C2CC2)cc1Nc1cccc(-c2nc(C)ns2)c1OC [Example 13, 6-cyclopropaneamido-4-{[2-methoxy-3-(3-methyl-1,2,4-thiadiazol-5-yl)phenyl]amino}-N-(^2H3)methylpyridazine-3-carboxamide]	–	–	51
CNC(=O)c1nnc(NC(=O)C2CC2)cc1Nc1cccc(-c2cnc(C3CC3)cn2)c1OC [Example 11, 6-cyclopropaneamido-4-{[3-(5-cyclopropylpyrazin-2-yl)-2-methoxyphenyl]amino}-N-(^2H3)methylpyridazine-3-carboxamide]	–	–	165
CNC(=O)c1nnc(NC(=O)C2CC2)cc1Nc1cccc(-c2ncns2)c1OC [Example 9, 6-cyclopropaneamido-4-{[2-methoxy-3-(1,2,4-thiadiazol-5-yl)phenyl]amino}-N-(^2H3)methylpyridazine-3-carboxamide]	–	–	161
CNC(=O)c1nnc(NC(=O)C2CC2)cc1Nc1cccc(-c2cnc([N+](=O)[O-])cn2)c1OC [Example 12, 6-cyclopropaneamido-4-{[2-methoxy-3-(5-nitropyrazin-2-yl)phenyl]amino}-N-(^2H3)methylpyridazine-3-carboxamide]	–	–	44
CNC(=O)c1nnc(NC(=O)C2CC2)cc1Nc1cccc(-c2cnc(F)cn2)c1OC [Example 10, 6-cyclopropaneamido-4-{[3-(5-fluoropyrazin-2-yl)-2-methoxyphenyl]amino}-N-(^2H3)methylpyridazine-3-carboxamide]	–	–	219
